The nature of series [1]: In vitro skin deposition of FL-HA (120 kDa) in Franz diffusion cells, fluorimetry. The format is in vitro ADME, porcine. An excerpt: The effect of electroporation parameters on skin integrity and transport of hyaluronic acid (at 1% by weight in water) 120 kDa (HA) labeled with fluorescein into the permeabilzed skin was investigated in vitro using electroporation vs. its passive diffusion.
ii) porating mode (100-250 V, shorter pulse lengths and low number of pulses). Franz-diffusion cells were used to evaluate the in vitro delivery.
Porcine ear skin was used for the in vitro studies. It is accepted as a good model for the human skin barrier. Hairs were excised from the skin surface using clippers. The skin was “sliced” so as to obtain samples with an average thickness of 1.5 mm for all samples. Skin was frozen (−20° C.) or stored at 4° C. until use.
The FL-HA was quantified using by fluorimetry. The measurements were performed using a microplate reader. The excitation and emission wavelengths were 494 and 514 nm. The gain was adjusted to 80 in order to obtain better sensitivity of the samples. All samples were put in polystyrene 96-well plates and protected from the light until analysis. Furthermore, a calibration curve was included in every plate.
The aim of the experiments was to quantify penetration of FL-HA (120 kDa) into intact, electroporated porcine ear skin with and without iontophoresis) as a function of duration using the optimal treatment conditions identified in the previous part of the study. Electroporation treatment was performed either as (i) pre-treatment, where electroporation was performed before formulation application, or as (ii) co-treatment, where the elcetroporation treatment was performed simultaneou.sly in the presence of the formulation. All conditions were tested for 10 and 20 min.
3. Condition 9 (Voltage 250 V, Pulse length 15 ms, Pulse interval 50 ms and 9 Pulses), pre-treatment with electroporation
4. Condition 9 (Voltage 250 V, Pulse length 15 ms, Pulse interval 50 ms and 9 Pulses), simultaneous treatment with electroporation and formulation
7. Control: Application of an aqueous solution of FL-HA (120 kDa) formula on (1% w/w) to “untreated” skin. […]

Series [2] in a line: Skin images (confocal microscopy) for skin damage after the electrical treatment. Also noted: species or system porcine. Conditions: for skin damage in skin images: electroporation condition 9 plus iontophoresis. The procedure:
The combination of such parameters with iontophoresis at 0.2 mA/cm^2 for 20 min has also been corroborated (x 12 vs. passive diffusion).
9. Take photos to make a visual record of skin condition.
The skin images obtained provide more information about the possible skin damage produced by the electroporation treatment.

Turning to hyaluronic acid [HA 120 kDa], the “skin deposition, electroporation plus iontophoresis (CT+I) compared with electroporation alone (CT)” value in series [1] (condition 9, iontophoresis 0.2 mA/cm^2 for 20 min, p<0.05, ANOVA, Student Newman Keuls test) is “statistically superior”; in series [1] (condition 9, iontophoresis 0.2 mA/cm^2 up to 10 min), “not increasing the deposition”. Also, in series [1] (electroporation combined with iontophoresis at 0.2 mA/cm^2 for 20 min), the “increase in skin deposition vs. passive diffusion” value amounted to 12 x. In addition, the “visual damage to the membrane (skin)” value in series [2] (electroporation alone, 250 V, pulse length 15 ms, pulse interval 50 ms, <10 pulses) is listed as “no visual damage”. For the same substance, the “skin damage in skin images” value is given as “lack of significant damage to the skin” in series [2] and “no damage was observed” in series [2] (listed as 120 kDa FL-HA formulation).

The record behind these values is US20200254241A1, “ELECTRICAL METHOD OF DELIVERING HYALURONIC ACID THROUGH THE SKIN” (priority 2017, published 2020).
